Patent US11708367B2, “Compounds for the treatment of kinase-dependent disorders” (Exelixis, Inc., priority 2018, dated 2023)

Assays:
Met [1] = target: T1, Met (Homo sapiens (Human), UniProt P08581); assay: Human Met kinase assay (33P radiometric, KinaseProfiler); assay type: biochemical; conditions: 10 μM ATP, read-out: c-Met IC50
Method: (§1) Kinase activity and compound inhibition were investigated using the ^33P-Phosphoryl transfer radiometric kinase assay, performed using the KinaseProfiler™ service of Eurofins Pharma Discovery Services UK Limited. Dose-response experiments were performed using nine compound concentrations in a 96-well microtiter plate. For each assay, all compounds were prepared to a 50× final assay concentration (50 μM) in 100% DMSO, then diluted in a half-log series, with the final top concentration at 1 μM. This working stock of the compound was added to the assay well as the first component in the reaction, followed by the remaining components as detailed in the following assay protocols below. The positive control wells (100% kinase activity) contain all components of the reaction including 2% DMSO (control for solvent effects), except the compound of interest. Blank wells contain all components of the reaction, with the reference inhibitor, staurosporine. This reference compound was used to abolish kinase activity and generated the 0% kinase activity base-line. IC50 values were calculated by nonlinear regression analysis using the sigmoidal dose-response (variable slope) curve fit on XLFit version 5.3 (ID Business Solutions).
Human Met (residues R974-S1390 with A1209G and V1290L, 3.4 nM) was incubated with 8 mM MOPS pH 7.0, 0.2 mM EDTA, 250 µM KKKGQEEEYVFIE (SEQ ID NO. 45), 1 mM sodium orthovanadate, 5 mM […], 10 mM magnesium acetate, and 10 μM [γ-33P-ATP]. The reaction was initiated by the addition of the Mg/ATP mix. After incubation for 40 minutes at room temperature, the reaction was stopped by the addition of phosphoric acid to a concentration of 0.5%. A reaction aliquot of 10 μL was then spotted onto a P30 filtermat and washed four times for 4 minutes in 0.425% phosphoric acid and once in methanol prior to drying and scintillation counting. Incorporated 33P was measured using the Wallac Microbeta scintillation counter (Perkin Elmer).

Mer = Mer (Homo sapiens (Human), UniProt Q12866); assay: Human Mer kinase assay (33P radiometric, KinaseProfiler); assay type: biochemical; conditions: 10 μM ATP
Method: as §1
Human Mer (residues R557-E882 with H628Q and R794A, 0.7 nM) was incubated with 8 mM MOPS pH 7.0, 0.2 mM EDTA, 30 mM NaCl, 250 μM GGMEDIYFEFMGGKKK (SEQ ID NO. 44), 10 mM magnesium acetate, and 10 μM [γ-33P-ATP]. The reaction was initiated by the addition of the Mg/ATP mix. After incubation for 40 minutes at room temperature, the reaction was stopped by the addition of phosphoric acid to a concentration of 0.5%. A reaction aliquot of 10 μL was then spotted onto a P30 filtermat and washed four times for 4 minutes in 0.425% phosphoric acid and once in methanol prior to drying and scintillation counting. Incorporated 33P was measured using the Wallac Microbeta scintillation counter (Perkin Elmer).

Human Axl = Human Axl (Homo sapiens (Human), UniProt P30530, Q764R); assay: Human AXL kinase assay (33P radiometric, KinaseProfiler); assay type: biochemical; conditions: 10 μM ATP
Method: as §1
Human Axl (residues H473-A894 with Q764R, 161 nM) was incubated with 8 mM MOPS pH 7.0, 0.2 mM EDTA, 250 μM KKSRGDYMTMQIG (SEQ ID NO. 43), 10 mM magnesium acetate and 10 μM [γ-33P-ATP]. The reaction was initiated by the addition of the Mg/ATP mix. After incubation for 40 minutes at room temperature, the reaction was stopped by the addition of phosphoric acid to a concentration of 0.5%. A reaction aliquot of 10 μL was then spotted onto a P30 filtermat and washed four times for 4 minutes in 0.425% phosphoric acid and once in methanol prior to drying and scintillation counting. Incorporated ^33P was measured using the Wallac Microbeta scintillation counter (Perkin Elmer).

Met [2] = target: T1, Met; assay: Met autophosphorylation ELISA in PC-3 cells; assay type: cell-based; conditions: cellular, HGF-stimulated, phospho-Met ELISA, read-out: c-Met IC50
Method: PC-3 prostate cancer cells (ATCC #CRL-1435) were seeded at 4×10^4 cells/well onto 24-well plates (Greiner #662165), in DMEM (Thermo Fisher #11995-040) containing 10% FBS (Thermo Fisher #26140-079), 1% MEM NEAA (Thermo Fisher #11140-050), 1% GlutaMax (Thermo Fisher #35050-061), and 1% Penicillin Streptomycin (Thermo Fisher #15140-122). PC-3 cells were incubated at 37° C., 5% CO2 for 24 h and then starved for 3 h in serum-free medium. Test compounds were serially diluted to produce an 8-point dose curve in fresh serum-free medium to a final concentration of 0.3% DMSO (vehicle) and added to the cells and incubated for 1 h. Cells were then stimulated with 100 ng/mL recombinant human HGF (R&D Systems #294-HG-250) for 10 min, washed with cold PBS, and immediately lysed with 130 μL of cold IX lysis buffer [20 mM Tris, 137 mM sodium chloride, 2 mM EDTA, 10% glycerol, 1% NP-40 alternative, 1 mM activated sodium orthovanadate, 1 mM PefaBloc SC (Sigma-Aldrich #11429868001), protease/phosphatase inhibitor tablet (Thermo Fisher #A32959)]. Lysates were clarified by centrifugation and 100 μL/well added into the PathScan phospho-Met (panTyr) Sandwich ELISA (Cell Signaling Technology #7333). Assay was performed according to manufacturer's instructions. Positive control wells (100% activity) contained HGF-stimulated, DMSO-treated cell lysates. Negative control wells (0% activity) contained HGF-stimulated, reference inhibitor-treated cell lysates. IC50 values were calculated by nonlinear regression analysis using a 4-parameter logistic curve fit in ActivityBase XL (IDBS).
Target sequence in this assay (P08581 25-1390): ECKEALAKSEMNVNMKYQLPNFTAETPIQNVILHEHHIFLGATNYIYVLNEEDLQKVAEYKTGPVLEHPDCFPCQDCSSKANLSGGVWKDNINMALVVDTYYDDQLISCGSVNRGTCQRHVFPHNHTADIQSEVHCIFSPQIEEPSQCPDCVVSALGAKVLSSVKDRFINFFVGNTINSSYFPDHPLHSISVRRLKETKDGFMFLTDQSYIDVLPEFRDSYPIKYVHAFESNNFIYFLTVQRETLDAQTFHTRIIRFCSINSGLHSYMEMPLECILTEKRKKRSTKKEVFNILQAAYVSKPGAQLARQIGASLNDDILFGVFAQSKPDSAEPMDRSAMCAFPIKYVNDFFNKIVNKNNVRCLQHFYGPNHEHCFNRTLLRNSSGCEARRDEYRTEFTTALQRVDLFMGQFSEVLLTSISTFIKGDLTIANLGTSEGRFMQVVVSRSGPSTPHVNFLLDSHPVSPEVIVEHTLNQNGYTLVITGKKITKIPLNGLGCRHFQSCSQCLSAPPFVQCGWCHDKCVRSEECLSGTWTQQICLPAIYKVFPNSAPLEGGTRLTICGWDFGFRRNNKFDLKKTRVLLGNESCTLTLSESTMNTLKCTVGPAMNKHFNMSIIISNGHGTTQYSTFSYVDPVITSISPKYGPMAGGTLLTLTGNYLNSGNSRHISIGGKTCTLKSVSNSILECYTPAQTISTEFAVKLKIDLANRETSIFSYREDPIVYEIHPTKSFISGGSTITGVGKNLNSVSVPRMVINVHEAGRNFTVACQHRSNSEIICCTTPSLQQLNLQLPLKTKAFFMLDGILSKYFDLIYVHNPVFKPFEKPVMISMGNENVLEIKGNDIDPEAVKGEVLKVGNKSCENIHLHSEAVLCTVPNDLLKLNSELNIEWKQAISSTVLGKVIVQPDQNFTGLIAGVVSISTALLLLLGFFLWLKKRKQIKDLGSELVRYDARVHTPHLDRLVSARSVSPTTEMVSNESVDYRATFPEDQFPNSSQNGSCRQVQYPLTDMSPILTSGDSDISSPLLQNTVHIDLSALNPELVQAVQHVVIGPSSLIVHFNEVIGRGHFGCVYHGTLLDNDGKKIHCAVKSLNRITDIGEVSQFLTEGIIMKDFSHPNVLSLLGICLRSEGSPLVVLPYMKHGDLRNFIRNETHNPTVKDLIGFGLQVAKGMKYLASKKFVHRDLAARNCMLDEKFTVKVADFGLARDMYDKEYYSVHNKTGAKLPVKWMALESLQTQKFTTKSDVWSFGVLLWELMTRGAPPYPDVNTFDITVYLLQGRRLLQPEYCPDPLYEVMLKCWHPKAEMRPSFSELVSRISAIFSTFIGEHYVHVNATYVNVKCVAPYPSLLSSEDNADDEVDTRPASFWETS

KDR = KDR (Homo sapiens (Human), UniProt P35968); assay: KDR autophosphorylation ELISA in HUVEC cells; assay type: cell-based; conditions: cellular, VEGF165-stimulated, phospho-KDR ELISA
Method: Human umbilical vein endothelial cells or HUVEC (Lonza #C2519A) were seeded at 2×10^4 cells/well onto 96-well plates (Corning #3904), in EGM-2 growth medium (Lonza #CC-3162) containing 1% Penicillin Streptomycin (Thermo Fisher #15140-122). HUVEC cells were incubated at 37° C., 5% CO2 for 24 h and then starved for 24 h in serum-free EBM-2 basal medium (Lonza #CC-3156) containing 1% Penicillin Streptomycin. Test compounds were serially diluted to produce an 8-point dose curve in fresh serum-free medium to a final concentration of 0.3% DMSO (vehicle) and added to the cells and incubated for 1 h. Cells were then stimulated with 100 ng/mL recombinant human VEGF165 (R&D Systems #293-VE-500) for 5 min, washed with cold PBS, and immediately lysed with 130 μL of cold 1× lysis buffer [20 mM Tris, 137 mM sodium chloride, 2 mM EDTA, 10% glycerol, 1% NP-40 alternative, 1 mM activated sodium orthovanadate, 1 mM PefaBloc SC (Sigma-Aldrich #11429868001), protease/phosphatase inhibitor tablet (Thermo Fisher #A32959)]. Lysates were collected and 100 μL/well added into the human phospho-KDR Duo Set IC ELISA (R&D Systems #DYC 1766-2). Assay was performed according to manufacturer's instructions and sample phospho-KDR concentrations were extrapolated using human phospho-KDR control (R&D Systems #841421) as a standard. Positive control wells (100% activity) contained VEGF165-stimulated, DMSO-treated cell lysates. Negative control wells (0% activity) contained non-stimulated cell lysates. IC50 values were calculated by nonlinear regression analysis using a 4-parameter logistic curve fit in ActivityBase XE (IDBS).

AXL = AXL (Homo sapiens (Human), UniProt P30530); assay: AXL autophosphorylation ELISA in A-172 cells; assay type: cell-based; conditions: cellular, Gas6-stimulated, phospho-AXL ELISA
Method: A-172 glioblastoma cells (ATCC #CRL-1620) were seeded at 2.5×10^5 cells/well onto 24-well plates (Greiner #662165), in DMEM (Thermo Fisher #11995-040) containing 10% FBS (Thermo Fisher #26140-079), 1% MEM NEAA (Thermo Fisher #11140-050), 1% GlutaMax (Thermo Fisher #35050-061), and 1% Penicillin Streptomycin (Thermo Fisher #15140-122). A-172 cells were incubated at 37° C., 5% CO2 for 24 h and then starved for 24 h in serum-free medium. Test compounds were serially diluted to produce an 8-point dose curve in fresh serum-free medium to a final concentration of 0.3% DMSO (vehicle) and added to the cells and incubated for 1 h. Cells were then stimulated with 1 μg/mL recombinant human Gas6 (R&D Systems #885-GSB-500) for 15 min, washed with cold PBS, and immediately lysed with 150 μL of cold IX lysis buffer [20 mM Tris, 137 mM sodium chloride, 2 mM EDTA, 10% glycerol, 1% NP-40 alternative, 1 mM activated sodium orthovanadate, 1 mM PefaBloc SC (Sigma-Aldrich #11429868001), protease/phosphatase inhibitor tablet (Thermo Fisher #A32959)]. Lysates were collected and 100 μL/well added into the human phospho-AXL Duo Set IC ELISA (R&D Systems #DYC2228-2). Assay was performed according to manufacturer's instructions and sample phospho-AXL concentrations were extrapolated using human phospho-AXL control (R&D Systems #841645) as a standard. Positive control wells (100% activity) contained Gas6-stimulated, DMSO-treated cell lysates. Negative control wells (0% activity) contained Gas6-stimulated, reference inhibitor-treated cell lysates. IC50 values were calculated by nonlinear regression analysis using a 4-parameter logistic curve fit in ActivityBase XL (IDBS).

Sequence of Human Axl (P30530 473-894 Q764R): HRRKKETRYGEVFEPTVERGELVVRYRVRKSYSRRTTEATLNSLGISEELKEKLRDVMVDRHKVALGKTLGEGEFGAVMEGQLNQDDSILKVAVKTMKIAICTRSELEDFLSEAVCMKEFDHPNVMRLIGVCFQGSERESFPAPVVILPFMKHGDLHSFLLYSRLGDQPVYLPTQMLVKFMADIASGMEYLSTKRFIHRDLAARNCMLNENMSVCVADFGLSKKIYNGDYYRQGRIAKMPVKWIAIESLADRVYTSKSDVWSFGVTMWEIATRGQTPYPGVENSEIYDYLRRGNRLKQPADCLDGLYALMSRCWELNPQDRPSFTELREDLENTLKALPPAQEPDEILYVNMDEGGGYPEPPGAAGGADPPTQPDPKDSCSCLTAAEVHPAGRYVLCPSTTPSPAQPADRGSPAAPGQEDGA
Sequence of Mer (Q12866 557-882): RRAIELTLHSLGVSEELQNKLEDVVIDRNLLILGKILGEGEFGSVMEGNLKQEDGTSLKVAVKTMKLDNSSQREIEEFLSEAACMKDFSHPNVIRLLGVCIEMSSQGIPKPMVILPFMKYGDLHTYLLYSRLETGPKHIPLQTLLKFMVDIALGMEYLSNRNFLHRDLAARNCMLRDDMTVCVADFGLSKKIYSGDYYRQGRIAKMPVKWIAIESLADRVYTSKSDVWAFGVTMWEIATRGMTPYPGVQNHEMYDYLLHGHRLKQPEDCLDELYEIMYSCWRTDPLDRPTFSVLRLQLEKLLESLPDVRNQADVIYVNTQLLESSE
Sequence of AXL (P30530 26-894): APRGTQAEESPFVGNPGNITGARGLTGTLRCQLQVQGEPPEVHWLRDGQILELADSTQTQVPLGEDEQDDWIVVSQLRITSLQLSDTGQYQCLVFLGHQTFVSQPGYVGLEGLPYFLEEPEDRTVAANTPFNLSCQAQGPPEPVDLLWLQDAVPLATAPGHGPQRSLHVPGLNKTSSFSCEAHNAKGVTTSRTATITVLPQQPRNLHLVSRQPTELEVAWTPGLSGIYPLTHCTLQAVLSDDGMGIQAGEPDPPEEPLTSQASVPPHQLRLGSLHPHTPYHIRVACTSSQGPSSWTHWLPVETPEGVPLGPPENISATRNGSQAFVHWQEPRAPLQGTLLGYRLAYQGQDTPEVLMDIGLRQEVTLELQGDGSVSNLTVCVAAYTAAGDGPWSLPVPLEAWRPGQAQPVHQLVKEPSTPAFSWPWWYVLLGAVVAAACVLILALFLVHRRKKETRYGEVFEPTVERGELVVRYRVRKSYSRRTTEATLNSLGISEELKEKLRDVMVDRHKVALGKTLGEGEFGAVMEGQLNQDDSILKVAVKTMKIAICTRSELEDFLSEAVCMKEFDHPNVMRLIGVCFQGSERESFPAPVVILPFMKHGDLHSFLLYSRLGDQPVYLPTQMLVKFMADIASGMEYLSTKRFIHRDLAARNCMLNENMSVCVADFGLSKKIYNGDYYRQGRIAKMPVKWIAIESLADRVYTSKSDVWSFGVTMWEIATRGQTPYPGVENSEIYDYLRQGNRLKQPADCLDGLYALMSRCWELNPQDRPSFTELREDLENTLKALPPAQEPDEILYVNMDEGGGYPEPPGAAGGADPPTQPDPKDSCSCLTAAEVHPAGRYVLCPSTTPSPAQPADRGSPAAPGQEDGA
Sequence of KDR (P35968 20-1356): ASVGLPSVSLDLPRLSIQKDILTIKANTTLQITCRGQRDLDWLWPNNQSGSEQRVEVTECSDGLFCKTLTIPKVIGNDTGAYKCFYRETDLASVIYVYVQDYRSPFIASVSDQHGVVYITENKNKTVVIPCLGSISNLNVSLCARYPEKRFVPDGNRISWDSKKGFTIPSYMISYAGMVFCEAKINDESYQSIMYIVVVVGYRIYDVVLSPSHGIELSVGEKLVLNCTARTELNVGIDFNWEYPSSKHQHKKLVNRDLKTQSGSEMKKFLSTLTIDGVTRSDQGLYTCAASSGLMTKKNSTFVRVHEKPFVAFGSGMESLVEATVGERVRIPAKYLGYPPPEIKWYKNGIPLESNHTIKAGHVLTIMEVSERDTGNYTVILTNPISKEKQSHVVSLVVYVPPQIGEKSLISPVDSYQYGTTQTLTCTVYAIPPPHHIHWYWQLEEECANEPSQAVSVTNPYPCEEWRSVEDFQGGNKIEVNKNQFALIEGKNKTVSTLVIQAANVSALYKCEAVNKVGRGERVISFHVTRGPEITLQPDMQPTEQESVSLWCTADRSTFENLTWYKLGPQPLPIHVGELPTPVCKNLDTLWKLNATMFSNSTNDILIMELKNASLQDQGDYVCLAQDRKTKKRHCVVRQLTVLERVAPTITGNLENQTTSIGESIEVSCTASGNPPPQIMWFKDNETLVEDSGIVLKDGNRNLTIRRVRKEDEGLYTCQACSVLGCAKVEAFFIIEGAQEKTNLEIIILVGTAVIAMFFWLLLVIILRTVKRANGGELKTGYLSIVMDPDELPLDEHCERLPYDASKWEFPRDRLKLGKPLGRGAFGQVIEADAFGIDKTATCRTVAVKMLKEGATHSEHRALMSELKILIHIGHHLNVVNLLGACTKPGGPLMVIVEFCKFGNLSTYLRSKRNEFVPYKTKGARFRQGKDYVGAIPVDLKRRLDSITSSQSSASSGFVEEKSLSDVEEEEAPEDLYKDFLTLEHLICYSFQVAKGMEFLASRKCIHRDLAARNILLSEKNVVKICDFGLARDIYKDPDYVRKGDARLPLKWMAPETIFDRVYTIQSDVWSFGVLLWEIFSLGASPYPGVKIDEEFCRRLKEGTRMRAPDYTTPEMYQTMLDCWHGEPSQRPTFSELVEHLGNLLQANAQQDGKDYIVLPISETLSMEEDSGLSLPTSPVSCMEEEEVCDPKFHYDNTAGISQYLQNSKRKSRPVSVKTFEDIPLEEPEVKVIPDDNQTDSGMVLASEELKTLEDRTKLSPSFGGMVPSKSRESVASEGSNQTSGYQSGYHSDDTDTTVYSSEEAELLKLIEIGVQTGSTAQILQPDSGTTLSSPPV

Structure (SMILES) | IC50 (Met [1]) [nM] | IC50 (Mer) [nM] | IC50 (Human Axl) [nM] | IC50 (Met [2]) [nM] | IC50 (KDR) [nM] | IC50 (AXL) [nM]
O=C(Nc1ccc(F)cc1)C1(C(=O)Nc2ccc(Oc3ncnc4cccnc34)cc2)CC1 [Compound 7, 1-N′-(4-fluorophenyl)-1-N-(4-pyrido[3,2-d]pyrimidin-4-yloxyphenyl)cyclopropane-1,1-dicarboxamide] | 100 to 1000 | > 1000 | > 1000 |  |  | 
O=C(Nc1ccc(F)cc1)C1(C(=O)Nc2ccc(Oc3ncnc4cc(Cl)cnc34)cc2)CC1 [Compound 12, 1-N-[4-(7-chloropyrido[3,2-d]pyrimidin-4-yl)oxyphenyl]-1-N′-(4-fluorophenyl)cyclo-propane-1,1-dicarboxamide] | 100 to 1000 | 100 to 1000 | > 1000 |  |  | 
O=C(Nc1ccc(F)cc1)C1(C(=O)Nc2ccc(Oc3ncnc4cc(Br)cnc34)cc2)CC1 [Compound 13, 1-N-[4-(7-bromopyrido[3,2-d]pyrimidin-4-yl)oxyphenyl]-1-N′-(4-fluorophenyl)cyclo-propane-1,1-dicarboxamide] | 100 to 1000 | 100 to 1000 | 100 to 1000 |  |  | 
CNC(=O)c1nc2c(Oc3ccc(NC(=O)C4(C(=O)Nc5ccc(F)cc5)CC4)cc3)ccnc2cc1OC [Compound 172, 1-N′-(4-fluorophenyl)-1-N-[4-[[7-methoxy-6-(methyl-carbamoyl)-1,5-naphthyridin-4-yl]oxy]phenyl]cyclo-propane-1,1-dicarboxamide] |  |  |  | > 300 | > 300 | 100 to 300
COc1cc2nccc(Oc3ccc(NC(=O)C4(C(=O)Nc5ccc(F)cc5)CC4)cc3)c2nc1C(=O)N(C)C [Compound 174, 1-N-[4-[[6-(dimethyl-carbamoyl)-7-methoxy-1,5-naphthyridin-4-yl]oxy]phenyl]-1-N′-(4-fluorophenyl)cyclopropane-1,1-dicarboxamide] |  |  |  | 100 to 300 | > 300 | > 300
COc1cc2nccc(Oc3ccc(NC(=O)C4(C(=O)Nc5ccc(F)cc5)CC4)cc3)c2nc1-c1cn[nH]c1 [Compound 183, 1-N′-(4-fluorophenyl)-1-N-[4-[[7-methoxy-6-(1H-pyrazol-4-yl)-1,5-naphthyridin-4-yl]oxy]phenyl]cyclopropane-1,1-dicarboxamide] |  |  |  | > 300 | > 300 | > 300
COc1cc2nccc(Oc3ccc(NC(=O)C4(C(=O)Nc5ccc(F)cc5)CC4)cc3)c2nc1-c1ccnn1C [Compound 184, 1-N′-(4-fluorophenyl)-1-N-[4-[[7-methoxy-6-(2-methyl-pyrazol-3-yl)-1,5-naphthyridin-4-yl]oxy]phenyl]cyclo-propane-1,1-dicarboxamide] |  |  |  | > 300 | > 300 | > 300

Results, then the molecule that gave them:

IC50 (Met [1]) [nM] | IC50 (Mer) [nM] | IC50 (Human Axl) [nM] | IC50 (Met [2]) [nM] | IC50 (KDR) [nM] | IC50 (AXL) [nM] | Structure (SMILES)
 |  |  | 10 to 100 | 10 to 100 | 10 to 100 | COc1cc2nccc(Oc3ccc(NC(=O)C4(C(=O)Nc5ccc(F)cc5)CC4)cc3Cl)c2nc1C(N)=O [Compound 169, 1-N′-[4-[(6-carbamoyl-7-methoxy-1,5-naphthyridin-4-yl)oxy]-3-chlorophenyl]-1-N-(4-fluorophenyl)cyclo-propane-1,1-dicarboxamide]
 |  |  | 100 to 300 | 100 to 300 | 100 to 300 | CNC(=O)c1nc2c(Oc3ccc(NC(=O)C4(C(=O)Nc5ccc(F)cc5)CC4)cc3F)ccnc2cc1OC [Compound 173, 1-N′-[3-fluoro-4-[[7-methoxy-6-(methylcarbamoyl)-1,5-naphthyridin-4-- yl]oxy]phenyl]-1-N-(4-fluoro-phenyl)cyclopropane-1,1-dicarboxamide]
 |  |  | 10 to 100 | 100 to 300 | ≤ 10 | COc1cnc2c(Oc3cc(F)c(NC(=O)C4(C(=O)Nc5ccc(F)cc5)CC4)cc3F)ccnc2c1 [Compound 176, 1-N′-[2,5-difluoro-4-[(7-methoxy-1,5-naphthyridin-4-yl)oxy]phenyl]-1-N-(4-fluorophenyl)cyclopropane-1,1-dicarboxamide]
